Measurements from ChEMBL document CHEMBL3046142, “Cross resistance, genetic analysis and stability of resistance to buprofezin in cotton whitefly, Bemisia tabaci (Homoptera: Aleyrodidae)” (2012).

What was measured:
Type in all cases: functional
Bemisia tabaci [1] = experiment: Insecticidal activity against Bemisia tabaci Bupro-SEL (sweet potato whitefly) from 20 generation buprofezin resistance assessed as mortality measured after 18 to 20 days
Bemisia tabaci [2] = experiment: Insecticidal activity against Bemisia tabaci Bupro-SEL (sweet potato whitefly) from 10 generation buprofezin resistance assessed as mortality measured after 18 to 20 days
Bemisia tabaci [3] = experiment: Insecticidal activity against Bemisia tabaci UNSEL G11 (sweet potato whitefly) from 11 generation buprofezin resistance assessed as mortality measured after 18 to 20 days
Bemisia tabaci [4] = experiment: Insecticidal activity against Bemisia tabaci (sweet potato whitefly) from one generation buprofezin resistance G1 assessed as mortality measured after 18 to 20 days
Bemisia tabaci [5] = experiment: Insecticidal activity against Bemisia tabaci (sweet potato whitefly) susceptible Lab-PK assessed as mortality measured after 18 to 20 days
Bemisia tabaci [6] = experiment: Insecticidal activity against Bemisia tabaci F1 (sweet potato whitefly) pooled/Bupro-SEL hybrid assessed as mortality measured after 18 to 20 days
Bemisia tabaci [7] = experiment: Insecticidal activity against Bemisia tabaci F1 (sweet potato whitefly) pooled assessed as mortality measured after 18 to 20 days
Bemisia tabaci [8] = experiment: Insecticidal activity against Bemisia tabaci Bupro-SEL (sweet potato whitefly) male/Lab-PK female hybrid assessed as mortality measured after 18 to 20 days
Bemisia tabaci [9] = experiment: Insecticidal activity against Bemisia tabaci Bupro-SEL (sweet potato whitefly) female/Lab-PK male hybrid assessed as mortality measured after 18 to 20 days

Row | SMILES | LC50 (Bemisia tabaci [1]) [ugAi/ml] | LC50 (Bemisia tabaci [2]) [ugAi/ml] | LC50 (Bemisia tabaci [3]) [ugAi/ml] | LC50 (Bemisia tabaci [4]) [ugAi/ml] | LC50 (Bemisia tabaci [5]) [ugAi/ml] | LC50 (Bemisia tabaci [6]) [ugAi/ml] | LC50 (Bemisia tabaci [7]) [ugAi/ml] | LC50 (Bemisia tabaci [8]) [ugAi/ml] | LC50 (Bemisia tabaci [9]) [ugAi/ml]
1 | C/C(=N\C#N)N(C)Cc1ccc(Cl)nc1 [ACETAMIPRID] | 0.4 | 4.04 | 0.36 | 2.21 | 0.39 | – | – | – | –
2 | CC(C)N1C(=O)N(c2ccccc2)CS/C1=N\C(C)(C)C [BUPROFEZIN] | 115.2 | 1400 | 0.25 | 1.41 | 0.2 | 62.6 | 4.86 | 4.41 | 5.11
3 | O=[N+]([O-])/N=C1\NCCN1Cc1ccc(Cl)nc1 [IMIDACLOPRID] | 0.17 | 2.18 | 0.2 | 1.29 | 0.09 | – | – | – | –
4 | CC(COc1ccc(Oc2ccccc2)cc1)Oc1ccccn1 (centres undefined) [PYRIPROXYFEN] | 1.63 | 51.54 | 0.52 | 1.81 | 0.6 | – | – | – | –
5 | CCOC(=O)OC1=C(c2cc(C)ccc2C)C(=O)N[C@]12CC[C@@H](OC)CC2 [SPIROTETRAMAT] | 0.11 | 1.04 | 0.1 | 0.7 | 0.17 | – | – | – | –
